System: GADD153
Assay: Immunostaining for GADD153 in mouse kidney sections
Assay type: in vivo
Conditions: PN21 mice, VX-809 vs DMSO
Excerpt: FIG. 12A, FIG. 12B, and FIG. 12C show GADD153 expression in kidneys of Pkd1^fl/fl; Pax8^rtTA; TetO-cre mice. Immunoflourescence images representing the GADD expression (green) in DMSO (FIG. 12A) or VX-809 (FIG. 12B) treated PN21 Pkd1^fl/fl in mouse. Columns (FIG. 12C) represent % area of GADD immunopositive (green) cells in DMSO or VX-809 treated PN21 Pkd1^fl/fl in mouse kidney sections. Data are expressed as mean 1+1 SEM of DMSO (vehicle)-treated (n=4) and VX-809-treated (n=4) mice. Statistical analysis was performed using a 2-tailed Student t-test. DMSO, dimethyl sulfoxide. Kidneys were fixed in 4% paraformaldehyde as described (62). Used here was the GADD153 antibody (Sc-7351), goat antirabbit (A21429, AlexaFluor 555, 1:1,000; Life Technologies, Carlsbad, Calif.) and DAPI (H-1200; Vector Laboratories, Burlingame, Calif.). […] Cells positive for GADD153 and the total number of cells were measured with ImageJ. The results are expressed as percentages;
Given that VX-809 alters an ensemble of Hsps, it was evaluated whether VX-809 alters proteins associated with ER stress. To address this question, the levels of three ER stress-associated proteins were measured, 78-kDa glucose-regulated protein (GRP78), ER oxidoreductin 1 (Ero1) and DNA damage-inducible protein 3 (GADD153), also known as C/EBP homologous protein (CHOP) (37). […]

With lumacaftor [VX-809] the “GADD153 immunostaining in kidneys” value was “strong reduction”.
